The conditions of the data set: 298.15 K; 101.33 kPa; Liquid; Vibrating tube method.

± gives the expanded uncertainty stated by the source.

As to `C[N+](=O)[O-]` [nitromethane], the mass density (in general, mass per unit of volume) amounted to 1131.1 ± 2.3 kg/m3. The same measure for `CCC(O)CC` [3-pentanol]: 815.8 ± 1.7 kg/m3.

For the origin of these results see the NIST ThermoML archive (doi:10.1016/j.jct.2018.08.035).
